From BindingDB's records for doi:10.7270/Q2C53J9J (University of Pittsburgh, 2010)

target: T1, Glucose-6-phosphate 1-dehydrogenase (Leuconostoc mesenteroides, UniProt P11411); test: Leuconostoc G6PDH inhibition potency, SAR follow-up, counter-screen for TbHK1 inhibitor project, biochemical, analogue series, IC50 (AID 2579)
T1 sequence (P11411 whole entry): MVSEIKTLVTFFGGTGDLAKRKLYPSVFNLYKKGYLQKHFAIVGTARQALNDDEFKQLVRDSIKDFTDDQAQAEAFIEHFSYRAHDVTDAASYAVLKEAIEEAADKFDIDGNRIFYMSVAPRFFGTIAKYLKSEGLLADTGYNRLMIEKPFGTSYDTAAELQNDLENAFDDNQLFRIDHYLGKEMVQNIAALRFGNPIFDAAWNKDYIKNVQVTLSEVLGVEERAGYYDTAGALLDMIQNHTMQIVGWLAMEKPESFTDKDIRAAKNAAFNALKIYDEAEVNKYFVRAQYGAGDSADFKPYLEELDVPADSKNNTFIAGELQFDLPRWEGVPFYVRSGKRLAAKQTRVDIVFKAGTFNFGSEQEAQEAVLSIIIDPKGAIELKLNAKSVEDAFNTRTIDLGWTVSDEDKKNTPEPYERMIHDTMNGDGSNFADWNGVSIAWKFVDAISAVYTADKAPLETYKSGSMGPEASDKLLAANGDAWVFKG

SMILES | IC50
COc1ccc(C(=O)N(C)c2cc(Cl)ccc2C(=O)O)cc1 | > 25 µM
COc1ccc(C(=O)NC(C(=O)O)c2ccccc2)cc1 (stereo not drawn) [2-[(4-methoxyphenyl)carbonylamino]-2-phenyl-ethanoic acid] | > 25 µM
O=C(O)c1ccc(Cl)cc1NC(=O)N1CCOCC1 [KUC105933N] | > 25 µM
COc1ccc(C(=O)Nc2cccc(Cl)c2)cc1 | > 25 µM
COc1ccc(NC(=O)c2ccc(Cl)cc2C(=O)O)cc1 [KUC105925N] | > 25 µM
Cc1ccc(C(=O)Nc2cc(Cl)ccc2C(=O)O)c(C)c1 [4-chloro-2-[[(2,4-dimethylphenyl)-oxomethyl]amino]benzoic acid] | > 25 µM
COc1cccc(-n2sc3ccccc3c2=O)c1 [2-(3-methoxyphenyl)-1,2-benzothiazol-3-one] | > 25 µM
O=c1c2cc([N+](=O)[O-])ccc2sn1-c1ccccc1 [KUC103868N] | > 25 µM
